# PMC8956739, “A synthetic lipopeptide targeting top-priority multidrug-resistant Gram-negative pathogens” (Nature Communications, 2022)
# Residues, ends and D or L forms follow the SMILES beside them.
# Assays:
# A. baumannii ATCC 19606 = type: cell-based, Acinetobacter baumannii; conditions: ATCC 19606
# Summary of the method: (§1)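 Each strain is tested in cation-adjusted Mueller–Hinton broth using the micro-dilution technique, and growth inhibition gives the MIC.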
# A. baumannii FADDI-AB030 = type: cell-based, Acinetobacter baumannii; conditions: FADDI-AB030
# Summary of the method: as §1
# A. baumannii FADDI-AB034 = type: cell-based, Acinetobacter baumannii; conditions: FADDI-AB034
# Summary of the method: as §1
# P. aeruginosa ATCC 27853 = type: cell-based, Pseudomonas aeruginosa; conditions: ATCC 27853
# Summary of the method: as §1
# [1] = system: P. aeruginosa FADDI-PA025; type: cell-based, Pseudomonas aeruginosa; conditions: FADDI-PA025
# Summary of the method: as §1
# [2] = system: P. aeruginosa FADDI-PA038; type: cell-based, Pseudomonas aeruginosa; conditions: FADDI-PA038
# Summary of the method: as §1
# A. baumannii AB5075 = test: Transcriptomic analysis (RNA-Seq) of bacteria; type: cell-based, Acinetobacter baumannii; conditions: for logFC (Differential gene expression for all genes), Geneid ABUW_RS00005 / logFC (Differential gene expression for all genes), Geneid ABUW_RS00020 / logFC (Fold change), gene ABUW_RS00010 / logFC (Fold change), gene ABUW_RS00030 / logFC (Fold change), gene ABUW_RS00035 / logFC (Fold change), gene recF (ABUW_RS00015) / 4h_1h logFC (Differential gene expression for all genes), Geneid ABUW_RS00005 / 4h_1h logFC (Differential gene expression for all genes), Geneid ABUW_RS00010 / 4h_1h logFC (Differential gene expression for all genes), Geneid ABUW_RS00015 / 4h_1h logFC (Differential gene expression for all genes), Geneid ABUW_RS00020: RNA-Seq A. baumannii AB5075; for log2FC, gene ABUW_RS01945 (acyl-CoA thioesterase II) / log2FC, gene ABUW_RS02545 (acyl-CoA thioesterase) / log2FC, gene ABUW_RS05045 (acyl-CoA thioesterase) / log2FC, gene ABUW_RS17575 (acyl-CoA thioesterase): pathway Fatty Acid and Lipid Degradation; for 4h_1h logFC (Differential gene expression for all genes), Geneid ABUW_RS00005 / 4h_1h logFC (Differential gene expression for all genes), Geneid ABUW_RS00010 / 4h_1h logFC (Differential gene expression for all genes), Geneid ABUW_RS00015 / 4h_1h logFC (Differential gene expression for all genes), Geneid ABUW_RS00020: 4h vs 1h
# Protocol: Mid-log phase A. baumannii AB5075 (~10^8 CFU/mL) in CaMHB was treated with colistin (2 and 8 μg/mL), F287, F319 or F365 (equimolar concentration to colistin) for 1 and 4 h. Total RNA was extracted using TRIzol Reagent (Invitrogen, USA) and RNeasy Mini Kit (Qiagen, Germany). Quality check of RNA samples was conducted with NanoDrop (Thermo Fisher Scientific, USA) and Agilent 2100 Bioanalyzer (Agilent Technologies, USA) for sequencing (150 bp paired-end) at Genewiz (Shanghai, China). Raw reads were aligned to A. baumannii AB5075 genome (GCF_000963815, https://www.ncbi.nlm.nih.gov/assembly/GCF_000963815.1/) using subread-aligner (subread 2.0.1) and summarized by featureCounts (subread 2.0.1). Principal component analysis (PCA) was conducted with mixOmics 6.14.1 in R. Differentially expressed genes were determined using limma 3.46.0 with a combination of fold change ≥ 2 and false discovery rate (FDR, by Benjamini–Hochberg algorithm) adjusted P-value ≤ 0.05 (n = 3). Enrichment analysis of gene differential expression in AB5075 was conducted using BioCyc (A. baumannii AB5075, version 25.5). UpSetR 1.4.0, ComplexHeatmap 2.6.2 and circlize 0.4.13 were used for data visualization. Raw data were deposited in Short Reads Archive (SRA) database under accession numbers SRR15235669-SRR15235725.
smiles,measurement,setting,value
"CCCCCCCC(=O)N[C@@H](CCN)C(=O)N[C@H](C(=O)N[C@@H](CCN)C(=O)N[C@H]1CCNC(=O)[C@H]([C@@H](C)O)NC(=O)[C@H](CCN)NC(=O)[C@H](CCN)NC(=O)[C@H](CC)NC(=O)[C@@H](CC(C)C)NC(=O)[C@H](CCN)NC1=O)[C@@H](C)O [Lipopeptide F319] (HELM PEPTIDE1{[CCCCCCCC(=O)[*:2]].[Dab].T.[Dab].[Dab].[Dab].[dL].[Abu].[Dab].[Dab].T}$PEPTIDE1,PEPTIDE1,5:R3-11:R2$$$V2.0)",MIC A. baumannii ATCC 19606,A. baumannii ATCC 19606,0.5 µg/mL
same,MIC A. baumannii FADDI-AB030,A. baumannii FADDI-AB030,0.5 µg/mL
same,MIC A. baumannii FADDI-AB034,A. baumannii FADDI-AB034,<0.125 µg/mL
same,MIC P. aeruginosa ATCC 27853,P. aeruginosa ATCC 27853,0.5 µg/mL
same,"MIC, No Survanta",P. aeruginosa ATCC 27853,1 µg/mL
same,MIC P. aeruginosa FADDI-PA025,[1],4 µg/mL
same,MIC P. aeruginosa FADDI-PA038,[2],4 µg/mL
same,"logFC (Differential gene expression for all genes), Geneid ABUW_RS00005","A. baumannii AB5075; H vs Cont, 1h",-0.09763
same,"logFC (Differential gene expression for all genes), Geneid ABUW_RS00020","A. baumannii AB5075; H vs Cont, 1h",0.4439
same,"logFC (Fold change), gene ABUW_RS00010","A. baumannii AB5075; H vs Cont, 1h",0.5437
same,"logFC (Fold change), gene ABUW_RS00030","A. baumannii AB5075; H vs Cont, 1h",-0.5665
same,"logFC (Fold change), gene ABUW_RS00035","A. baumannii AB5075; H vs Cont, 1h",1.083
same,"logFC (Fold change), gene recF (ABUW_RS00015)","A. baumannii AB5075; H vs Cont, 1h",-0.2736
same,"log2FC, gene ABUW_RS01945 (acyl-CoA thioesterase II)","A. baumannii AB5075; H vs Cont, 1h",0.4348
same,"log2FC, gene ABUW_RS02545 (acyl-CoA thioesterase)","A. baumannii AB5075; H vs Cont, 1h",1.57
same,"log2FC, gene ABUW_RS05045 (acyl-CoA thioesterase)","A. baumannii AB5075; H vs Cont, 1h",0.3422
same,"log2FC, gene ABUW_RS17575 (acyl-CoA thioesterase)","A. baumannii AB5075; H vs Cont, 1h",-0.5597
same,"logFC (Differential gene expression for all genes), Geneid ABUW_RS00005","A. baumannii AB5075; H vs Cont, 4h",-0.2808
same,"logFC (Differential gene expression for all genes), Geneid ABUW_RS00020","A. baumannii AB5075; H vs Cont, 4h",-0.01751
same,"logFC (Fold change), gene ABUW_RS00010","A. baumannii AB5075; H vs Cont, 4h",1.173
same,"logFC (Fold change), gene ABUW_RS00030","A. baumannii AB5075; H vs Cont, 4h",-1.885
same,"logFC (Fold change), gene ABUW_RS00035","A. baumannii AB5075; H vs Cont, 4h",0.8498
same,"logFC (Fold change), gene recF (ABUW_RS00015)","A. baumannii AB5075; H vs Cont, 4h",-1.612
same,"log2FC, gene ABUW_RS01945 (acyl-CoA thioesterase II)","A. baumannii AB5075; H vs Cont, 4h",-0.7411
same,"log2FC, gene ABUW_RS02545 (acyl-CoA thioesterase)","A. baumannii AB5075; H vs Cont, 4h",1.194
same,"log2FC, gene ABUW_RS05045 (acyl-CoA thioesterase)","A. baumannii AB5075; H vs Cont, 4h",0.6506
same,"log2FC, gene ABUW_RS17575 (acyl-CoA thioesterase)","A. baumannii AB5075; H vs Cont, 4h",-1.957
same,"4h_1h logFC (Differential gene expression for all genes), Geneid ABUW_RS00005",A. baumannii AB5075; H,-0.8466
same,"4h_1h logFC (Differential gene expression for all genes), Geneid ABUW_RS00010",A. baumannii AB5075; H,0.6539
same,"4h_1h logFC (Differential gene expression for all genes), Geneid ABUW_RS00015",A. baumannii AB5075; H,-1.958
same,"4h_1h logFC (Differential gene expression for all genes), Geneid ABUW_RS00020",A. baumannii AB5075; H,0.139
same,"logFC (Differential gene expression for all genes), Geneid ABUW_RS00005","A. baumannii AB5075; L vs Cont, 1h",0.2742
same,"logFC (Differential gene expression for all genes), Geneid ABUW_RS00020","A. baumannii AB5075; L vs Cont, 1h",0.3388
same,"logFC (Fold change), gene ABUW_RS00010","A. baumannii AB5075; L vs Cont, 1h",0.1491
same,"logFC (Fold change), gene ABUW_RS00030","A. baumannii AB5075; L vs Cont, 1h",0.2512
same,"logFC (Fold change), gene ABUW_RS00035","A. baumannii AB5075; L vs Cont, 1h",-0.1567
same,"logFC (Fold change), gene recF (ABUW_RS00015)","A. baumannii AB5075; L vs Cont, 1h",0.1396
same,"log2FC, gene ABUW_RS01945 (acyl-CoA thioesterase II)","A. baumannii AB5075; L vs Cont, 1h",0.4255
same,"log2FC, gene ABUW_RS02545 (acyl-CoA thioesterase)","A. baumannii AB5075; L vs Cont, 1h",0.2059
same,"log2FC, gene ABUW_RS05045 (acyl-CoA thioesterase)","A. baumannii AB5075; L vs Cont, 1h",-0.2352
same,"log2FC, gene ABUW_RS17575 (acyl-CoA thioesterase)","A. baumannii AB5075; L vs Cont, 1h",0.153
same,"logFC (Differential gene expression for all genes), Geneid ABUW_RS00005","A. baumannii AB5075; L vs Cont, 4h",0.0635
same,"logFC (Differential gene expression for all genes), Geneid ABUW_RS00020","A. baumannii AB5075; L vs Cont, 4h",-0.109
same,"logFC (Fold change), gene ABUW_RS00010","A. baumannii AB5075; L vs Cont, 4h",0.1358
same,"logFC (Fold change), gene ABUW_RS00030","A. baumannii AB5075; L vs Cont, 4h",0.06806
same,"logFC (Fold change), gene ABUW_RS00035","A. baumannii AB5075; L vs Cont, 4h",0.1484
same,"logFC (Fold change), gene recF (ABUW_RS00015)","A. baumannii AB5075; L vs Cont, 4h",-0.1014
same,"log2FC, gene ABUW_RS01945 (acyl-CoA thioesterase II)","A. baumannii AB5075; L vs Cont, 4h",0.08809
same,"log2FC, gene ABUW_RS02545 (acyl-CoA thioesterase)","A. baumannii AB5075; L vs Cont, 4h",-0.3183
same,"log2FC, gene ABUW_RS05045 (acyl-CoA thioesterase)","A. baumannii AB5075; L vs Cont, 4h",0.2863
same,"log2FC, gene ABUW_RS17575 (acyl-CoA thioesterase)","A. baumannii AB5075; L vs Cont, 4h",0.3089
same,"4h_1h logFC (Differential gene expression for all genes), Geneid ABUW_RS00005",A. baumannii AB5075; L,-0.004361
same,"4h_1h logFC (Differential gene expression for all genes), Geneid ABUW_RS00010",A. baumannii AB5075; L,-0.867
same,"4h_1h logFC (Differential gene expression for all genes), Geneid ABUW_RS00015",A. baumannii AB5075; L,-0.3076
same,"4h_1h logFC (Differential gene expression for all genes), Geneid ABUW_RS00020",A. baumannii AB5075; L,-0.09503
